{
  "source": "patent US20060252798A1",
  "about": "“Metal ion chelators and therapeutic use thereof” (priority 2003, published 2006)",
  "key": {"[1]": {"system": "SK-N-MC neuroepithelioma cells", "test": "3H-uridine incorporation by SK-N-MC cells", "type": "cell-based, human", "conditions": "20 h incubation then 2 h label; Mean ± SD, 3 experiments", "description": "After a 20 h incubation of the SK-N-MC cells with a selection of analogues, ^3H-thymidine, ^3H-leucine, or ^3H-uridine (1 μCi/ml) was added for 2 h at 37° C. The cells were detached from the 96 well plate using 1 mM EDTA in Ca(II)/Mg(II)-free PBS and collected and washed using a cell harvester (Tomtec Harvester 96, Linbrook, Queensland, Australia). Radioactivity was measured on a P-scintillation counter (LKB Wallace, Turku, Finland)."}, "[2]": {"test": "Maximum tolerated dose in CD2F1 hybrid mice", "type": "in vivo", "conditions": "CD2F1 mice, iv twice a day", "description": "BALB/c and DBA/2 mice were obtained from Animal Resources Centre (University of New South Wales (UNSW), Sydney, Australia) and crossed to produce CD2F1 animals (all procedures used were approved by the Animal Ethics Committee, UNSW). Groups of eight female CD2F1 mice (8-10 weeks old) were fed and watered ad-libitum, and injected via the tail vein with compounds being studied in 30% propylene glycol in 0.9% sterile saline, twice a day, 6 h apart, 5 days/week for 2 weeks. The maximum tolerated dose (MTD) was defined as the dose at which 30% of a cohort either died or lost weight in excess of 10%.^19"}, "[3]": {"system": "active caspase-9", "test": "Protein level of active caspase-9 in M109 cells (western blotting)", "type": "cell-based, mouse", "conditions": "1 μM", "description": "FIG. 14. Effect of Dp44mT (1 μM) on the (A,B) protein levels of active caspase-3, -8 and -9, and (C,D) the activity of caspase-3, -8 and -9 in cultured M109 cells in the absence (C) and presence (D) of cell-permeable caspase inhibitors. (A) Caspase-3, -8, and -9 levels after Dp44mT treatment at indicated times as detected by western blotting (upper panel). The anti-β-actin antibody was used to ensure equal protein loading (lower panel). (B) Densitometric analysis of the expression of caspase-3, -8, and -9 as a function of time normalized to β-actin (C) Caspase activity induced by Dp44mT (1 μM) at 0-48 h was expressed as a percentage of the 0 h time value. (D) Cell-permeable inhibitors of caspase-3, -8 or -9 at 1 μM prevented activation of these enzymes when incubated with Dp44mT (1 μM) for 48 h. Results are mean±SEM of three separate experiments.\nRabbit anti-active caspase-3 antibody, rabbit anti-active caspase-8 antibody and Annexin V fluorescein isothiocyanate (FITC) were from BD PharMingen (San Diego, Calif., USA). Anti-h-cytc MoAb was from R&D Systems Minneapolis, Minn., USA). Rabbit anti-active caspase-9 antibody, mouse anti-Bcl-2 and mouse anti-Bax antibodies were obtained from Santa Cruz (Santa Cruz, Calif., USA). Mouse anti-mouse β-actin antibody, horseradish peroxidase-conjugated antirabbit, and anti-mouse IgG were from Sigma Chemical Co. (St. Louis, Mo., USA).\nTo determine the role of caspase activation in Dp44mT-induced apoptosis in M109 cells, protein levels of active caspase-3, -8 and -9 (FIG. 14A,B) and their enzymatic activity (FIG. 14C,D) were examined."}, "[4]": {"system": "intracellular ROS", "test": "Intracellular ROS assay (DCF-DA, flow cytometry), M109 cells", "type": "cell-based, mouse", "conditions": "1 μM", "description": "Intracellular ROS generation was assessed using the cell-permeable dye 2′,7′-dichlorofluorescein-diacetate (DCF-DA) (Sigma). DCF-DA readily diffuses into cells and becomes highly fluorescent when oxidised by O2^•−, H2O2, or OH^−.^29 Cellular fluorescence intensity is directly proportional to the level of intracellular ROS.^29 M109 cells (1×10^5 cells/well) were incubated with or without 1 μM Dp44mT for 0-48 h or 50 μM H2O2 (positive control) for 10 min at 37° C. The cells were then incubated with DCF-DA (5 μM) for 20 min at 37° C., washed twice, and detached from the culture plates. The fluorescence of oxidised DCF in cells was measured using flow cytometry.^29)\nTo test whether induction of h-cytc release from the mitochondrion (FIG. 15A) and the imbalance of Bcl-2/Bax expression (FIG. 15B) was due to the presence of ROS, intracellular ROS were measured by flow cytometry using the DCFH-DA probe which becomes fluorescent when oxidised by O2^•−, H2O2, or OH^−.^29 Incubation of M109 cells with Dp44mT (1 μM) increased the levels of oxidised probe as a function of time. After 2 h, a 25±10% increase in oxidised DCFH-DA fluorescence was found compared to the 0 h time point, and this increased to 486±96% after 48 h (FIG. 15C). For comparison, a 10 min incubation with the positive control, H2O2 (50 μM), increased fluorescence to 1312±46% of the 0 h time point (FIG. 15C)"}, "[5]": {"system": "Bcl-2", "test": "Mitochondrial Bcl-2 protein level in M109 cells", "type": "cell-based, mouse", "conditions": "1 μM", "description": "(§1) Considering the roles of Bcl-2 and Bax in the mitochondrial pathway of apoptosis and their role in h-cytc release, ^8,11,12 the effect of Dp44mT (1 μM) on the protein levels of these molecules was assessed (FIG. 15B)."}, "[6]": {"system": "Bax", "test": "Bax protein level in M109 cells", "type": "cell-based, mouse", "conditions": "1 μM, 48 h", "description": "as §1"}, "[7]": {"test": "Mouse weight loss and haematological indices in M109-bearing mice", "type": "in vivo", "conditions": "Mean ± SEM", "description": "The tumour cells were passaged in CD2F1 mice by preparing a brei from the tumour and injecting it sc.^20 Dp44mT was dissolved in 30% (v/v) propylene glycol in saline and injected iv 4 days after tumour engraftment, twice daily for 5 days followed by a “rest period” of 2 days when the animal was not injected. On the twelfth day after tumour implantation, mice were sacrificed using methoxyfluorane and cardiac puncture performed. Blood counts and erythrocyte indices were measured using a Sysmex Blood Counter (Prince of Wales Hospital, Sydney, Australia). Mouse body weight changes during the treatment period were recorded. The tumours were weighed and fixed for histological examination. The experimental groups consisted of eight mice for the control and each treatment (Table 5)."}},
  "data": [
    {"smiles": "CC(=O)N(O)CCCCCNC(=O)CCC(=O)N(O)CCCCCNC(=O)CCC(=O)N(O)CCCCCN", "note": "[DFO, desferrioxamine]", "values": [
      {"measurement": "3H-Uridine Incorporation", "setting": "[1]", "value": "34 ± 5", "unit": "% Control"}
    ]},
    {"smiles": "CN(C)C(=S)NN=C(c1ccccn1)c1ccccn1", "note": "[Dp44mT, di-2-pyridylketone 4,4-dimethyl-3-thiosemicarbazone]", "values": [
      {"measurement": "maximum tolerated dose (MTD)", "setting": "[2]", "value": 0.4, "unit": "mg/kg"},
      {"measurement": "caspase-9 protein level", "setting": "[3]; 2 h", "value": "171 % of the control"},
      {"measurement": "caspase-9 protein level", "setting": "[3]; 6 h", "value": "280 % of the control"},
      {"measurement": "caspase-9 protein level", "setting": "[3]; 12 h", "value": "280 % of the control"},
      {"measurement": "caspase-9 protein level", "setting": "[3]; 24 h", "value": "about 4 fold that of control cells"},
      {"measurement": "caspase-9 protein level", "setting": "[3]; 48 h", "value": "greater than 10 fold that of control cells"},
      {"measurement": "increase in oxidised DCFH-DA fluorescence compared to the 0 h time point", "setting": "[4]; 2 h", "value": "25±10", "unit": "%"},
      {"measurement": "oxidised DCFH-DA fluorescence (increased to)", "setting": "[4]; 48 h", "value": "486±96", "unit": "%"},
      {"measurement": "Bcl-2 protein level", "setting": "[5]; 2 h", "value": "69 % of the 0 h time point"},
      {"measurement": "Bcl-2 protein level", "setting": "[5]; 48 h", "value": "37 % of the 0 h time point"},
      {"measurement": "Bax expression", "setting": "[6]", "value": "500 % of that found at the 0 h time point"},
      {"measurement": "Body weight loss", "setting": "[7]; Dp44mT 0.3 mg/kg", "value": "1.3 ± 0.3", "unit": "g"},
      {"measurement": "Haematocrit", "setting": "[7]; Dp44mT 0.3 mg/kg", "value": "0.40 ± 0.03"},
      {"measurement": "Haemoglobin", "setting": "[7]; Dp44mT 0.3 mg/kg", "value": "13.3 ± 0.5", "unit": "g/dL"},
      {"measurement": "Platelets", "setting": "[7]; Dp44mT 0.3 mg/kg", "value": "1019 ± 87 10^9/L"},
      {"measurement": "RBC", "setting": "[7]; Dp44mT 0.3 mg/kg", "value": "8.9 ± 0.4 10^12/L"},
      {"measurement": "WBC", "setting": "[7]; Dp44mT 0.3 mg/kg", "value": "4.2 ± 0.4 10^9/L"},
      {"measurement": "Body weight loss", "setting": "[7]; Dp44mT 0.4 mg/kg", "value": "1.1 ± 0.2", "unit": "g"},
      {"measurement": "Haematocrit", "setting": "[7]; Dp44mT 0.4 mg/kg", "value": "0.40 ± 0.01"},
      {"measurement": "Haemoglobin", "setting": "[7]; Dp44mT 0.4 mg/kg", "value": "11.8 ± 0.8", "unit": "g/dL"},
      {"measurement": "Platelets", "setting": "[7]; Dp44mT 0.4 mg/kg", "value": "636 ± 88 10^9/L"},
      {"measurement": "RBC", "setting": "[7]; Dp44mT 0.4 mg/kg", "value": "8.0 ± 0.6 10^12/L"},
      {"measurement": "WBC", "setting": "[7]; Dp44mT 0.4 mg/kg", "value": "3.9 ± 0.6 10^9/L"}
    ]}
  ]
}
